Source: publication PMC9389588, “1,6-epi-Cyclophellitol Cyclosulfamidate Is a Bona Fide Lysosomal α-Glucosidase Stabilizer for the Treatment of Pompe Disease” (Journal of the American Chemical Society, 2022)
“And” between values parts separate entries of the source, which are not always exact repeats. Equal entries are not always repeated.

Experiments:
[1] = target: α-glucosidase GAA (Myozyme) (Homo sapiens, UniProt P10253); experiment: in vitro apparent IC50, GAA (Myozyme), 4-MU-α-D-glucopyranoside; assay type: biochemical; design: purchased Sanofi Genzyme; conditions: Myozyme 47 nM, pH 4.0, 30 min preincubation, mean ± SD
[2] = target: T1, β-glucosidase GBA1 (Cerezyme) (Homo sapiens, UniProt P04062, R534H); experiment: in vitro apparent IC50, GBA1 (Cerezyme), 4-MU-β-D-glucopyranoside; assay type: biochemical; conditions: pH 5.2, mean ± SD, read-out: in vitro GBA IC50
T1 construct: purchased
T1 sequence (P04062 40-536 R534H): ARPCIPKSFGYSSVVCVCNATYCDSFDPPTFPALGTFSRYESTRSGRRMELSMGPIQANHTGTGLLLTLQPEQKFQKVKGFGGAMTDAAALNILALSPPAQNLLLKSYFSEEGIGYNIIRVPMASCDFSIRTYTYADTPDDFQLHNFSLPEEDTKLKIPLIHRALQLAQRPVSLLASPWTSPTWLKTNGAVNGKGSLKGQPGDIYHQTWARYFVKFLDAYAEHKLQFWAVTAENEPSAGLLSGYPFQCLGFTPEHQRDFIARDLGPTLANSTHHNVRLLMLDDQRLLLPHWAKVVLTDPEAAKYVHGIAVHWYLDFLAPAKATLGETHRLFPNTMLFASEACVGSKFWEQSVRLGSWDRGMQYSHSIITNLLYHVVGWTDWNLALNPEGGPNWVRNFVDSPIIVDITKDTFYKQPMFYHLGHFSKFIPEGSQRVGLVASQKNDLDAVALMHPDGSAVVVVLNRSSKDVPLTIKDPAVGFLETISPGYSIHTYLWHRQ

[3] = target: T2, β-glucosidase GBA2 (Homo sapiens, UniProt Q9HCG7); experiment: in vitro apparent IC50, GBA2-overexpressing HEK293T lysate; assay type: biochemical; conditions: for IC50: apparent IC50, pH 5.8, mean ± SD
T2 construct: expressed in transfected cells; host or cells: HEK293T
T2 sequence (Q9HCG7 1-927): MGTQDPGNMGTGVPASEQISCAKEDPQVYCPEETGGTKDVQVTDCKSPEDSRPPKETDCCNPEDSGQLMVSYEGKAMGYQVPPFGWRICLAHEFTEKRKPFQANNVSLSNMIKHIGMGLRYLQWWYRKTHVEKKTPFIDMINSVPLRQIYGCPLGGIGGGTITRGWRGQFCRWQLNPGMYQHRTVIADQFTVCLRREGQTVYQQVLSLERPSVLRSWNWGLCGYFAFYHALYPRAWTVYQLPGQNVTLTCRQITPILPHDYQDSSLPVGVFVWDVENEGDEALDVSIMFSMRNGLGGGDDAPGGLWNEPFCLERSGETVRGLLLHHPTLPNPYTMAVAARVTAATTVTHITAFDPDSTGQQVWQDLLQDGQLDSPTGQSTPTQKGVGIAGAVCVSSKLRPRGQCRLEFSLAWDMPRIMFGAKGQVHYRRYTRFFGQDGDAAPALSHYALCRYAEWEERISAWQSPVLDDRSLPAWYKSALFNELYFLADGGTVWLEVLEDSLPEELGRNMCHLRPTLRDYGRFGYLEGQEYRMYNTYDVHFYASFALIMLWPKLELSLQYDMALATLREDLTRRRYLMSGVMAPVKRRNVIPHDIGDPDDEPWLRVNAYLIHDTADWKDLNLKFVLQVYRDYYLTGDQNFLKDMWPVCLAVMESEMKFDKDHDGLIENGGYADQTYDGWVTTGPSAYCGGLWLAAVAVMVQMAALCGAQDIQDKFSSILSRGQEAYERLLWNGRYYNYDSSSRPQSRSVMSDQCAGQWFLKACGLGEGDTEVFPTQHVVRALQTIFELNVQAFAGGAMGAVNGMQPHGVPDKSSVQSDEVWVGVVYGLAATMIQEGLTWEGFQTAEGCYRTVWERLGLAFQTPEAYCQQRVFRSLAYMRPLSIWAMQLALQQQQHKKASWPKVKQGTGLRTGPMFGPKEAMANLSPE

[4] = target: T3, ER α-glucosidase II (GANAB) (Homo sapiens, UniProt Q14697); experiment: in vitro apparent IC50, GANAB in fibroblast lysates, 4-MU-α-D-glucopyranoside; assay type: biochemical; conditions: for IC50: apparent IC50, Pompe disease fibroblast lysates, pH 7.0, mean ± SD
T3 construct: GANAB (from Pompe Disease Fibroblast Lysates); endogenous in cells; host or cells: human fibroblasts (lysate)
T3 sequence (Q14697 29-944): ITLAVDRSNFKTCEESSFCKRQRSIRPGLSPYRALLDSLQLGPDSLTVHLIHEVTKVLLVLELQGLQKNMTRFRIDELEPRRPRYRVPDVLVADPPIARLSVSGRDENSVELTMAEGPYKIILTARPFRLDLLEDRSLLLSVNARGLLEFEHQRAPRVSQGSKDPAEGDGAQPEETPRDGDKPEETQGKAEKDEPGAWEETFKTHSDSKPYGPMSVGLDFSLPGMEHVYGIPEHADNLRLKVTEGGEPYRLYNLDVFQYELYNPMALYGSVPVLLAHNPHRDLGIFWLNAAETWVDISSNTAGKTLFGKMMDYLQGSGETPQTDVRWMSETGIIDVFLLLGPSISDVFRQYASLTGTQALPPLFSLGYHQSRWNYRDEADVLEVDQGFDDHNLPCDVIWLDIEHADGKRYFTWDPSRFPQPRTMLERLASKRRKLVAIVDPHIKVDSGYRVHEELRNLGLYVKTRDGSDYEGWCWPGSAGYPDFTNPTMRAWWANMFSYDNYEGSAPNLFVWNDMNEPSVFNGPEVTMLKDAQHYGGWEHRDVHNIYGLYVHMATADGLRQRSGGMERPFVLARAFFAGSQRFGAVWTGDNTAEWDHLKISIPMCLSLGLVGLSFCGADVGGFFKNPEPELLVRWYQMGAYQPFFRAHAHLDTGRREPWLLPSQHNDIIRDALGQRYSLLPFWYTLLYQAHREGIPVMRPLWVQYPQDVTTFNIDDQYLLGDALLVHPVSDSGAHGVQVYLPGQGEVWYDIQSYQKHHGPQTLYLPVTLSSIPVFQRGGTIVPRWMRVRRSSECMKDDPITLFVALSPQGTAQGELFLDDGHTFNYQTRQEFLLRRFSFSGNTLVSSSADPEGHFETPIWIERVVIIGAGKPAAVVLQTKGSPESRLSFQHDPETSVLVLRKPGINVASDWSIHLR
T3 sequence (P14314 15-528 partner): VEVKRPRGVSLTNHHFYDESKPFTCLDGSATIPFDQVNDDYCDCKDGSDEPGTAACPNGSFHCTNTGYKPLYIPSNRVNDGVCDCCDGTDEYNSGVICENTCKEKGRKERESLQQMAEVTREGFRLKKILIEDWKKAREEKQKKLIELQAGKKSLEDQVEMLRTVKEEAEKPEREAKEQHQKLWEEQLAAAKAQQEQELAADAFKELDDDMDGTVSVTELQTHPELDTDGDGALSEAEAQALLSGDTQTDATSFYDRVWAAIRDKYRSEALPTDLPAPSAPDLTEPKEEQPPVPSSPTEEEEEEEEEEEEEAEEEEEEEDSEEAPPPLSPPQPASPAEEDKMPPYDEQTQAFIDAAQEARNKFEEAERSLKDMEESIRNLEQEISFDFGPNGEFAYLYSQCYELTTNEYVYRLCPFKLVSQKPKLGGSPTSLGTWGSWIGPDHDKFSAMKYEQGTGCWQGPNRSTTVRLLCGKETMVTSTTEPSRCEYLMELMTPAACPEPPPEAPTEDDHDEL

[5] = target: T4, glucosylceramide synthase (GCS) (Mus musculus, UniProt O88693); experiment: in situ cell inhibition of GCS in RAW 264.7 cells, glucosylation of C6-NBD-ceramide; assay type: cell-based; conditions: mean ± SD
T4 construct: endogenous in cells; host or cells: RAW 264.7
T4 sequence (O88693 1-394): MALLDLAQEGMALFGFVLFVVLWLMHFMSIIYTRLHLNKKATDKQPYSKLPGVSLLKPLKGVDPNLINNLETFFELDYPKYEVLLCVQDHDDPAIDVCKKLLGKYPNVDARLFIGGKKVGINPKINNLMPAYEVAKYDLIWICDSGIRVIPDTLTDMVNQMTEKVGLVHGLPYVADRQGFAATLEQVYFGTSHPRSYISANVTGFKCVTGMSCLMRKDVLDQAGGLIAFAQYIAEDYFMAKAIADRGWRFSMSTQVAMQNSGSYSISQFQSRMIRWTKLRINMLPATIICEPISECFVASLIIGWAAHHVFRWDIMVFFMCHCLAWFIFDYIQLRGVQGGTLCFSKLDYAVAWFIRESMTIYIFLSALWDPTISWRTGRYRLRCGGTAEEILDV

IC50 [1] [µM]	IC50 [2]	inhibition at 500 µM ([3]; at 500 μM) [%]	IC50 [4] [µM]	IC50 [5] [µM]	IC50 [3] [µM]	activity toward GANAB, in words [4]	SMILES
0.048	> 500 µM	62	0.026				O=S1(=O)O[C@@H]2[C@H](O)[C@@H](O)[C@H](O)[C@@H](CO)[C@@H]2O1 [compound 3, 1,6-epi-cyclophellitol cyclosulfate, reference compound]
> 1000	93 µM and 93.4 µM		132 ± 11.8	> 50	652 ± 87.3		CN1[C@H]2[C@H](CO)[C@@H](O)[C@H](O)[C@@H](O)[C@H]2OS1(=O)=O [compound 7]
485 ± 146	> 500 µM		> 500		393 ± 93.7	inactive	CN1[C@@H]2[C@H](O)[C@@H](O)[C@H](O)[C@@H](CO)[C@@H]2OS1(=O)=O [compound 5]
> 500	> 500 µM		> 500	> 50	> 500		O=S1(=O)N[C@@H]2[C@H](O)[C@@H](O)[C@H](O)[C@@H](CO)[C@@H]2N1 [compound 8]
